{"source": "patent US20030118571A1", "about": "“Oral administration of lactobacillus for the maintenance of health in women during pregnancy and at other life stages, to reduce the risk of urogenital diseases” (priority 1999, published 2003)", "key": {"E. coli": {"tested_on": "E. coli", "test": "MIC of peptides against uropathogenic microorganisms", "format": "cell-based, Escherichia coli HU734", "details": "bactericidal if less than 0.1% of original bacteria remained viable"}, "Ps. aeruginosa": {"tested_on": "Ps. aeruginosa", "test": "MIC of peptides against uropathogenic microorganisms", "format": "cell-based, Pseudomonas aeruginosa AK1", "details": "P. aeruginosa; bactericidal if less than 0.1% of original bacteria remained viable"}, "Kl. pneumoniae": {"tested_on": "Kl. pneumoniae", "test": "MIC of peptides against uropathogenic microorganisms", "format": "cell-based", "details": "K. pneumoniae; bactericidal if less than 0.1% of original bacteria remained viable"}, "Staph. epidermidis": {"tested_on": "Staph. epidermidis", "test": "MIC of peptides against uropathogenic microorganisms", "format": "cell-based, Staphylococcus epidermidis 1938"}}, "note": "Read-outs that look alike come from different tables or passages of the source. No end group written: not given here."}
{"substance": "SWLSKTAKKLENSAKKRISEGIAIAIQGGPR [Cecropin P1]", "values": [{"measurement": "mode of action", "setting": "E. coli", "value": "bacteriocidally"}, {"measurement": "mode of action", "setting": "Ps. aeruginosa", "value": "bacteriocidally"}, {"measurement": "mode of action", "setting": "Kl. pneumoniae", "value": "bacteriocidally"}, {"measurement": "MIC", "setting": "Staph. epidermidis", "value": ">100", "unit": "μmol 1^−1 M"}, {"measurement": "MIC", "setting": "L. rhamnosus GR-1", "value": "> 100", "unit": "µM"}, {"measurement": "MIC", "setting": "L. rhamnosus 81", "value": "> 100", "unit": "µM"}, {"measurement": "MIC", "setting": "L. plantarum RC-20", "value": "> 100", "unit": "µM"}, {"measurement": "MIC", "setting": "L. fermentum RC-14", "value": "> 100", "unit": "µM"}, {"measurement": "MIC", "setting": "L. fermentum B-54", "value": "> 100", "unit": "µM"}]}
{"substance": "FALL-39 (FALLGDFFRKSKEKIGKEFKRIVQRIKDFLRNLVPRTES; Antibacterial peptide FALL-39; UniProt P49913 132-170, looked up)", "values": [{"measurement": "mode of action", "setting": "E. coli", "value": "bactericidal"}, {"measurement": "mode of action", "setting": "Ps. aeruginosa", "value": "bacteriostatic"}, {"measurement": "mode of action", "setting": "Kl. pneumoniae", "value": "bacteriostatic"}, {"measurement": "MIC", "setting": "Staph. epidermidis", "value": ">100", "unit": "μmol 1^−1 M"}, {"measurement": "susceptibility of strain to peptide", "setting": "L. rhamnosus GR-1; L. rhamnosus GR-1, highest concentration 100 μmol 1^−1", "value": "resistant"}, {"measurement": "susceptibility of strain to peptide", "setting": "L. rhamnosus 81; L. rhamnosus 81, highest concentration 100 μmol 1^−1", "value": "resistant"}, {"measurement": "susceptibility of strain to peptide", "setting": "L. plantarum RC-20; L. plantarum RC-20, highest concentration 100 μmol 1^−1", "value": "resistant"}, {"measurement": "susceptibility of strain to peptide", "setting": "L. fermentum RC-14; L. fermentum RC-14, highest concentration 100 μmol 1^−1", "value": "resistant"}, {"measurement": "mode of action", "setting": "L. fermentum B-54; L. fermentum B-54", "value": "bacteriostatically"}, {"measurement": "MIC", "setting": "L. fermentum B-54; L. fermentum B-54 as indicator organism", "value": 100, "unit": "µM"}]}
